# US4657897A, “N^6 -substituted adenosines for treating pain” (Warner-Lambert Company, priority 1985, dated 1987)
# Key:
# [1] = target: T1, adenosine A2 receptor (Rattus norvegicus, UniProt P30543); experiment: Adenosine Receptor Binding--A2 Receptor Affinity (RBA2), [3H]NECA binding, rat striatal membranes; parameters: species or system rat (mixed sex Sprague-Dawley; male Long-Evans); settings: 4 nM [3H]NECA, 50 nM N6-cyclopentyladenosine, 25° C., 60 min
# T1 construct: 5 mg original tissue weight of rat weight of rat striatal membranes; tissue Pel-Freez (Rogers, Ark.) for the brains; host or cells: rat striatum (Sprague-Dawley; Long-Evans gave essentially identical results), membranes
# T1 sequence (P30543 whole entry): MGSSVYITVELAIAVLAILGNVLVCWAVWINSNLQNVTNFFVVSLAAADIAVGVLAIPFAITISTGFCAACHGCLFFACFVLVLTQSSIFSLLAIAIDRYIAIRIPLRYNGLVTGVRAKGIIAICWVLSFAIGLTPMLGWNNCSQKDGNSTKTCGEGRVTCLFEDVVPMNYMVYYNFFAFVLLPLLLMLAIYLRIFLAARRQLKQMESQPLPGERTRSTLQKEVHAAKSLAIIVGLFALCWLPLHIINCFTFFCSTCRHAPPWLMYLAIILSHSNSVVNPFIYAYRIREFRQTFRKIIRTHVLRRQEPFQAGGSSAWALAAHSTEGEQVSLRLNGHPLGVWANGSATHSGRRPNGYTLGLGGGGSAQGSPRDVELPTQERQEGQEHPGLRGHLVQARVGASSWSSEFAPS
# Procedure: Adenosine Receptor Binding--A2 Receptor Affinity (RBA2)
# Brains from 200-500 g mixed sex Sprague-Dawley rats were purchased from Pel-Freez (Rogers, Ark.). […] Brains were thawed and then kept on ice while the striata were dissected out. Striata were disrupted in 10 vol of ice-cold 50 mM Tris.HCl (pH 7.7 at 25° C., pH 8.26 at 5° C.) (Tris) for 30 seconds in a Polytron PT-10 (Brinkmann) at setting 5. The suspension was centrifuged at 50,000 xg for ten minutes, the supernatant discarded, the pellet resuspended in 10 vol ice-cold Tris as above, recentrifuged, resuspended at 1 g/5 ml, and stored in plastic vials at -70° C. […] When needed, tissue was thawed at room temperature, disrupted in a Polytron, and kept on ice until used.
# Test compounds were dissolved at 10 mM in dimethylsulfoxide on the same day as the experiment, and diluted in dimethylsulfoxide to 100× the final incubation concentration. […] [^3 H]NECA was diluted to 40 nM in Tris. […] After all additions, the rack of tubes was vortexed, and the tubes were then incubated for 60 min at 25° C. in a shaking water bath. The rack of tubes was vortexed an additional time halfway through the incubation.
# Incubations were terminated by filtration through 2.4 cm GF/B filters under reduced pressure. Each tube was filtered as follows: the contents of the tube were poured onto the filter, 4 ml of ice-cold Tris were added to the tube and the contents poured onto the filter, and the filter was washed twice with 4 ml of ice-cold Tris. The filtration was complete in about twelve seconds. Filters were put in scintillation vials, 8 ml of Formula 947 scintillation fluid added, and the vials left overnight, shaken, and counted in a liquid scintillation counter at 40% efficiency.
# The IC50 was calculated by weighted nonlinear least squares curve-fitting to the mass-action equation. [formula] where Y is cpm bound
# T is cpm total binding without drug
# S is cpm specific binding without drug
# D is the concentration of drug
# K is the IC50 of the drug
# Weighting factors were calculated under the assumption that the standard deviation was proportional to the predicted value of Y. Nonspecific binding was treated as a very large (infinite) concentration of drug in the computer analysis.
# [2] = target: T2, adenosine A1 receptor (Rattus norvegicus, UniProt P25099); experiment: Adenosine Receptor Binding--A1 Receptor Affinity (RBA1), [3H]-CHA binding, rat whole brain membranes; parameters: species or system rat (male Long Evans); settings: 1.0 nM [3H]-CHA, 25° C., 1 h
# T2 construct: Whole brain minus cerebellum and brainstem from male Long Evans rats; from tissue; host or cells: rat whole brain minus cerebellum and brainstem (male Long Evans), membranes
# T2 sequence (P25099 1-326): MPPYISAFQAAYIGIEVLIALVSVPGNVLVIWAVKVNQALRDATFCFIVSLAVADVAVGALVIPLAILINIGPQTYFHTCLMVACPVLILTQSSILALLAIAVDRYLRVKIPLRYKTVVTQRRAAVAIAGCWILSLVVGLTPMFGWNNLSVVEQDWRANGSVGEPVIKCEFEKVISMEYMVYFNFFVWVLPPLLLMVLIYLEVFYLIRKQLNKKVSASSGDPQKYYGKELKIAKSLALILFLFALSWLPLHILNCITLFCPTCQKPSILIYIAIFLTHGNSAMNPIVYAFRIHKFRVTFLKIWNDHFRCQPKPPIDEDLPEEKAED
# Procedure: Adenosine Receptor Binding--A1 Receptor Affinity (RBA1)
# Whole brain minus cerebellum and brainstem from male Long Evans rats (150-200 g) was homogenized in 30 volumes of ice-cold 0.05M Tris-HCl buffer pH 7.7 using a Brinkman Polytron PT-10, (setting number 6 for 20 seconds) and centrifuged for ten minutes at 20,000×g (Sorvall RC-2), 4° C. The supernatant was discarded, and the pellet was resuspended and centrifuged as before. The pellet was resuspended in 20 ml Tris-HCl buffer containing two International Units/ml of adenosine deaminase (Sigma type III from calf intestinal mucosa), incubated at 37° C. for 30 minutes, then subsequently at 0° C. for ten minutes. The homogenate was again centrifuged, and the final pellet was resuspended in ice-cold 0.05M Tris-HCl buffer pH 7.7 to a concentration of 20 mg/ml original wet tissue weight and used immediately.
# Tissue homogenate (10 mg/ml) was incubated in 0.05M Tris-HCl buffer pH 7.7 containing 1.0 nM [^3 H]-N^6 -cyclohexyladenosine[^3 H]-CHA) with or without test agents in triplicate for one hour at 25° C. Incubation volume was 2 ml. Unbound [^3 H]-CHA was separated by rapid filtration under reduced pressure through Whatman glass fiber (GF/B) filters. The filters were rinsed three times with 5 ml of ice cold 0.05M Tris-HCl buffer pH 7.7. The radio-labeled ligand retained on the filter was measured by liquid scintillation spectrophotometry after shaking the filters for one hour or longer on a mechanical shaker in 10 ml of Beckman Ready-Solv HP scintillation cocktail.
# Nonspecific binding was defined as the binding which occurred in the presence of 1 mM theophylline. The concentration of test agent which inhibited 50% of the specific binding (IC50) was determined by nonlinear computer curve fit. The Scatchard plot was calculated by linear regression of the line obtained by plotting the amount of radioligand bound (pmoles/gram of tissue) [formula] Since the amount of radioligand bound was a small fraction of the total amount added, free radioligand was defined as the concentration (nM) of radioligand added to the incubation mixture. The Hill coefficient was calculated by linear regression of the line obtained by plotting the log of the bound radioligand vs the log of the [formula] The maximal number of binding sites (Bmax) was calculated from the Scatchard plot.
# [3] = Mouse Activity and Screen Test (MAST), screen test failure (ST); assay type: in vivo, mouse (Swiss-Webster, male); settings: Mus musculus, ip; lowest dose at which an A rating is achieved; screen test; intraperitoneal, 1 h prior to testing; read-out: MAST ST LAD
# Procedure: Treatments are administered intraperitoneally one hour prior to testing. […] Compounds are dissolved or suspended in 0.2% Methocel. Control animals are injected with Methocel.
# The compounds are identified in the Examples.
Compound,IC50 [1] [nM],IC50 [2] [nM],minimal effective dose [3] [mg/kg]
"COC(=O)C(CNc1ncnc2c1ncn2[C@@H]1O[C@H](CO)[C@@H](O)[C@H]1O)(c1ccccc1)c1ccccc1 [Example 24, N^6-(2-Carbomethoxy-2,2-diphenylethyl)adenosine]",4600,79,> 30
"O=C(OC[C@H]1O[C@@H](n2cnc3c(NCC(c4ccccc4)c4ccccc4)ncnc32)[C@H](OC(=O)c2ccccc2)[C@@H]1OC(=O)c1ccccc1)c1ccccc1 [Example 26, 2',3',5'-Tri-O-benzoyl-N^6-(2,2-diphenylethyl)adenosine]",3840,1230,> 100
"CC(=O)OC[C@H]1O[C@@H](n2cnc3c(NCC(c4ccccc4)c4ccccc4)nc(Cl)nc32)[C@H](OC(C)=O)[C@@H]1OC(C)=O [Example 27, 2',3',5'-Tri-O-acetyl-N^6-(2,2-diphenylethyl)-2-chloroadenosine]",6820,30900,> 100
"CC1(C)O[C@@H]2[C@H](O1)[C@@H](CO)O[C@H]2n1cnc2c(NCC(c3ccccc3)c3ccccc3)ncnc21 [Example 29, 2',3'-O-Isopropylidene-N^6-(2,2-diphenylethyl)adenosine]",919,242,> 100

# Now those with a lower IC50 [1], led by results:
IC50 [1] [nM],IC50 [2] [nM],Compound,minimal effective dose [3] [mg/kg]
293,69,"Nc1nc(NCC(O)(c2ccccc2)c2ccccc2)c2ncn([C@@H]3O[C@H](CO)[C@@H](O)[C@H]3O)c2n1 [Example 23, N^6-(2,2-Diphenyl-2-hydroxyethyl)-2-aminoadenosine]",> 100
166,53,"CC(=O)OC[C@H]1O[C@@H](n2cnc3c(NCC(c4ccccc4)c4ccccc4)ncnc32)[C@H](OC(C)=O)[C@@H]1OC(C)=O [Example 25, 2',3',5'-Tri-O-acetyl-N^6-(2,2-diphenylethyl)adenosine]",> 100
